ChEMBL document CHEMBL4840311, “Discovery of novel nitrogenous heterocyclic-containing quinoxaline-1,4-di-N-oxides as potent activator of autophagy in M.tb-infected macrophages” (Eur J Med Chem, 2021)
pIC50: −log10 of the molar value. Converted amounts (≈) assume the structure as drawn. The source made the active and inactive calls. No cut-off for these calls is given here.

How the values were obtained:
[1] = tested on: Mycobacterium tuberculosis; experiment: Antimycobacterial activity against Mycobacterium tuberculosis H37Rv ATCC 27294 assessed as inhibition of bacterial growth measured after 5 days by microplate alamar blue assay; format: functional; details: H37Rv ATCC 27294, 120 h, time 5 day
Vero = experiment: Cytotoxicity against African green monkey Vero cells assessed as reduction in cell viability measured after 72 hrs by MTT assay; format: cell-based; details: Chlorocebus sabaeus
[2] = Selectivity index, ratio of IC50 for African green monkey Vero cells measured after 72 hrs by MTT assay to MIC for antimycobacterial activity against Mycobacterium tuberculosis H37Rv ATCC 27294 assessed as inhibition of bacterial growth measured after 5 days by microplate alamar blue assay; format: toxicity; details: read-out: Selectivity Index
J774.A1 [3] = experiment: Cytotoxicity against mouse J774.A1 cells assessed as reduction in cell viability measured after 72 hrs by MTT assay; format: cell-based; details: J774.A1, 72 h
[4] = tested on: Mycobacterium tuberculosis; experiment: Antimycobacterial activity against Mycobacterium tuberculosis H37Rv infected in mouse J774.A1 cells assessed as log reduction of bacterial growth at 40X MIC measured after 4 days by visual colony counting analysis; format: functional; details: time 4 day
[5] = tested on: Mycobacterium tuberculosis; experiment: Antimycobacterial activity against Mycobacterium tuberculosis H37Rv infected in mouse J774.A1 cells assessed as log reduction of bacterial growth at 10X MIC measured after 4 days by visual colony counting analysis; format: functional; details: time 4 day
[6] = tested on: Mycobacterium tuberculosis; experiment: Antimycobacterial activity against Mycobacterium tuberculosis H37Rv infected in mouse J774.A1 cells assessed as log reduction of bacterial growth at 20X MIC measured after 4 days by visual colony counting analysis; format: functional; details: time 4 day
[7] = tested on: Mycobacterium tuberculosis; experiment: Antimycobacterial activity against Mycobacterium tuberculosis H37Rv infected in mouse J774.A1 cells assessed as log reduction of bacterial growth at 1X MIC measured after 4 days by visual colony counting analysis; format: functional; details: time 4 day
[8] = tested on: Mycobacterium tuberculosis; experiment: Antimycobacterial activity against Mycobacterium tuberculosis H37Rv infected in mouse J774.A1 cells assessed as log reduction of bacterial growth at 1X to 40X MIC measured after 1 day by visual colony counting analysis; format: functional
Cell membrane [9] = experiment: Disruption on membrane integrity in Mycobacterium tuberculosis assessed as red fluorescence at 2X to 4X MIC measured after 24 hrs by SYTO 9/PI staining based inverted flourescence microscopy method
Cell membrane [10] = experiment: Disruption of membrane integrity Mycobacterium tuberculosis H37Rv assessed as disturbance in energy homeostasis by measuring reduction in ATP content at 0.125 to 2.5 ug/ml measured after 24 hrs by luciferase based bioluminescence assay; details: dose 0.125-2.5 µg/ml
J774.A1 [11] = experiment: Induction of cytoplasmic ROS generation in mouse J774.A1 cells infected with Mycobacterium tuberculosis H37Rv at 2.5 ug/ml measured after 24 hrs by DCFH-DA staining based flow cytometry assay; format: functional, cell-based; details: dose 2.5 µg/ml
J774.A1 [12] = experiment: Induction of mitochondrial ROS generation in mouse J774.A1 cells infected with Mycobacterium tuberculosis H37Rv at 2.5 ug/ml measured after 24 hrs by Mito-SOX staining based flow cytometry assay; format: functional, cell-based; details: dose 2.5 µg/ml
J774.A1 [13] = experiment: Activation of autophagy in mouse J774.A1 cells infected with Mycobacterium tuberculosis H37Rv assessed as increase of LC3-II expression by measuring ratio of LC3-II to LC3-I at 1 ug/ml measured after 24 hrs by Western blot assay (reference value: 1.18); format: functional; details: dose 1 µg/ml
J774.A1 [14] = experiment: Activation of autophagy in mouse J774.A1 cells infected with Mycobacterium tuberculosis H37Rv assessed as increase of LC3-II expression by measuring ratio of LC3-II to LC3-I at 2.5 ug/ml measured after 24 hrs by Western blot assay (reference value: 1.18); format: functional; details: dose 2.5 µg/ml
J774.A1 [15] = experiment: Activation of autophagy in mouse J774.A1 cells infected with Mycobacterium tuberculosis H37Rv assessed as increase of LC3-II expression by measuring ratio of LC3-II to LC3-I at 5 ug/ml measured after 24 hrs by Western blot assay (reference value: 1.18); format: functional; details: dose 5 µg/ml
[16] = Half life in Wistar rat at 2.5 mg/kg, im measured for 48 hrs by HPLC method; format: ADME, organism-based; details: in vivo
[17] = Tmax in Wistar rat at 2.5 mg/kg, im measured for 48 hrs by HPLC method; format: ADME, organism-based; details: in vivo
[18] = Cmax in Wistar rat at 2.5 mg/kg, im measured for 48 hrs by HPLC method; format: ADME, organism-based; set-up: route intramuscular, dose 2.5 mg/kg, time 48 hrs; details: in vivo
[19] = AUC (0 to t) in Wistar rat at 2.5 mg/kg, im measured for 48 hrs by HPLC method; format: ADME, organism-based; set-up: dose 2.5 mg/kg, time 48 hrs; details: in vivo
[20] = AUC (0 to infinity) in Wistar rat at 2.5 mg/kg, im by HPLC method; format: ADME, organism-based; set-up: time infinity, route intramuscular, dose 2.5 mg/kg; details: in vivo
[21] = MRT (0 to t) in Wistar rat at 2.5 mg/kg, im measured for 48 hrs by HPLC method; format: ADME, organism-based; details: in vivo
[22] = MRT (0 to infinity) in Wistar rat at 2.5 mg/kg, im by HPLC method; format: ADME, organism-based; details: in vivo
J774.A1 [23] = experiment: Induction of cytoplasmic ROS generation in mouse J774.A1 cells at 2.5 ug/ml measured after 24 hrs by DCFH-DA staining based flow cytometry assay; format: functional, cell-based; details: dose 2.5 µg/ml
J774.A1 [24] = experiment: Induction of mitochondrial ROS generation in mouse J774.A1 cells at 2.5 ug/ml measured after 24 hrs by DCFH-DA staining based flow cytometry assay; format: functional, cell-based; details: dose 2.5 µg/ml
J774.A1 [25] = experiment: Activation of autophagy in mouse J774.A1 cells assessed as LC3-II expression by measuring ratio of LC3-II to LC3-I measured after 24 hrs by Western blot assay (reference value: 1.04); format: functional
J774.A1 [26] = experiment: Activation of autophagy in mouse J774.A1 cells assessed as LC3 accumulation measured after 24 hrs by immunofluorescence staining analysis; format: functional, cell-based
J774.A1 [27] = experiment: Activation of autophagy in mouse J774.A1 cells infected with Mycobacterium tuberculosis H37Rv assessed as increase in LC3 accumulation at 2.5 to 5 ug/ml measured after 24 hrs by immunofluorescence staining analysis; format: functional, cell-based; details: dose 2.5-5 µg/ml
[28] = Toxicity in Wistar rat assessed as abnormal behaviour at 2.5 mg/kg, im measured for 48 hrs; format: organism-based; details: in vivo

## CC(=O)c1c(C)[n+]([O-])c2cc(N3CCNC(C)C3)c(F)cc2[n+]1[O-] (configuration not stated)
[1]
  MIC: 16 µg/mL (≈ 47.9 µM)

## CCCC(=O)c1c(C)[n+]([O-])c2cc(N3CCNCC3)c(F)cc2[n+]1[O-]
[1]
  MIC: 16 µg/mL (≈ 45.9 µM)

## Cc1c(C(=O)OCc2ccccc2)[n+]([O-])c2cc(F)c(F)cc2[n+]1[O-]
[1]
  MIC: 0.5 µg/mL (≈ 1.44 µM)
Vero
  pIC50: 4.26
[2]
  selectivity ratio at 72 hrs: 38.3

## CO[C@H]1/C=C/O[C@@]2(C)Oc3c(C)c(O)c4c(O)c(c(/C=N/N5CCN(C)CC5)c(O)c4c3C2=O)NC(=O)/C(C)=C\C=C\[C@H](C)[C@H](O)[C@@H](C)[C@@H](O)[C@@H](C)[C@H](OC(C)=O)[C@@H]1C [RIFAMPIN]
[1]
  MIC: 0.0625 µg/mL (≈ 0.0759 µM)

## CCCC(=O)c1c(C)[n+]([O-])c2ccccc2[n+]1[O-]
[1]
  MIC: 64 µg/mL (≈ 260 µM)

## CCCC(=O)c1c(C)[n+]([O-])c2cc(F)c(F)cc2[n+]1[O-]
[1]
  MIC: 8 µg/mL (≈ 28.3 µM)

## CCOC(=O)c1c(C(F)(F)F)[n+]([O-])c2cc(N3CCNCC3)c(F)cc2[n+]1[O-]
[1]
  MIC: 0.5 µg/mL (≈ 1.24 µM)
Vero
  pIC50: 4.50
[2]
  selectivity ratio at 72 hrs: 25.3

## Cc1c(C(=O)CC(C)C)[n+]([O-])c2cc(F)c(N3CCNCC3)cc2[n+]1[O-]
[1]
  MIC: 32 µg/mL (≈ 88.3 µM)

## CCOC(=O)c1c(C(F)(F)F)[n+]([O-])c2cc(-n3cncn3)c(F)cc2[n+]1[O-]
[1]
  MIC: 0.25 µg/mL (≈ 0.646 µM)
Vero
  pIC50: 4.45
[2]
  selectivity ratio at 72 hrs: 54.8

## CCOC(=O)c1c(C)[n+]([O-])c2cc(N3CCNC(C)C3)c(F)cc2[n+]1[O-] (configuration not stated)
[1]
  MIC: 8 µg/mL (≈ 22 µM)

## CCOC(=O)c1c(C(F)(F)F)[n+]([O-])c2cc(-n3ccnc3)c(F)cc2[n+]1[O-]
[1]
  MIC: 0.25 µg/mL (≈ 0.647 µM)
Vero
  pIC50: 4.71
[2]
  selectivity ratio at 72 hrs: 30

## Cc1c(C(=O)OC(C)C)[n+]([O-])c2cc(-n3ccnc3)c(-n3ccnc3)cc2[n+]1[O-]
[1]
  MIC: 8 µg/mL (≈ 20.3 µM)

## Cc1c(C(=O)OCc2ccccc2)[n+]([O-])c2cc(F)c(-n3cncn3)cc2[n+]1[O-]
[1]
  MIC: 0.125 µg/mL (≈ 0.316 µM)
Vero
  pIC50: 3.91
[2]
  selectivity ratio at 72 hrs: 328
J774.A1 [3]
  pIC50: 4.11
[4]
  log(activity): 2.73
[5]
  log(activity): 1.56
[6]
  log(activity): 2.12
[7]
  log(activity): 0.74
[8]
  log(activity): 0.1
Cell membrane [9]
  Activity: Active
Cell membrane [10]
  Activity: Active
J774.A1 [11]
  Activity: Active
J774.A1 [12]
  Activity: Active
J774.A1 [13]
  Ratio: 1.74
J774.A1 [14]
  Ratio: 1.92
J774.A1 [15]
  Ratio: 2.59
[16]
  half-life: 5.94 h
[17]
  Tmax: 2 h
[18]
  Cmax: 1560 ng/mL
[19]
  AUC(0-t) at 48 h: 10100 ng·h/mL
[20]
  AUC(0-inf): 10600 ng·h/mL
[21]
  MRT last at 48 h: 6.04 h
[22]
  MRT inf: 7.38 h
J774.A1 [23]
  Activity: inactive
J774.A1 [24]
  Activity: inactive
J774.A1 [25]
  Ratio: 0.78
J774.A1 [26]
  Activity: inactive
J774.A1 [27]
  Activity: Active
[28]
  Activity: Non-Toxic

## CCOC(=O)c1c(C)[n+]([O-])c2cc(-n3cncn3)c(F)cc2[n+]1[O-]
[1]
  MIC: 0.125 µg/mL (≈ 0.375 µM)
Vero
  pIC50: 3.81
[2]
  selectivity ratio at 72 hrs: 412
J774.A1 [3]
  pIC50: 4.11

## CCOC(=O)c1c(C)[n+]([O-])c2cc(N3CCCC3)c(F)cc2[n+]1[O-]
[1]
  MIC: 64 µg/mL (≈ 191 µM)

## CC(=O)c1c(C)[n+]([O-])c2cc(F)c(F)cc2[n+]1[O-]
[1]
  MIC: 2 µg/mL (≈ 7.87 µM)
Vero
  pIC50: 4.65
[2]
  selectivity ratio at 72 hrs: 2.8
